Laboratory results reported in patent publication US9169290B2, “Peptides and their use” (priority 2007, dated 2015).
≈ marks a conversion by molar mass, not a printed value. Like-named read-outs stand apart in the source and are kept apart here. Ends that are not written are not given here. Peptide text beside a SMILES is read from it.

Columns and labels:
[1] = tested on: C. albicans; type: cell-based, Candida albicans
Protocol: (§1) Broth Dilution Antifungal Susceptibility Testing
(§2) The sensitivity of relevant fungal strains to the peptides was determined using Clinical Laboratory Standard Institute (CLSI; formerly NCCLS) Approved Standards.

[2] = tested on: Trichophyton rubrum; type: cell-based
Protocol: as §1, §2

[3] = tested on: C. krusei; type: cell-based, Candida krusei
Protocol: as §1, §2

[4] = tested on: C. parapsilosis; type: cell-based, Candida parapsilosis
Protocol: as §1
The sensitivity of relevant fungal strains to the peptides was determined using Clinical Laboratory Standard Institute (CLSI; formerly NCCLS) Approved Standards. Fungal susceptibility was tested using “Reference Method for Broth Dilution Antifungal Susceptibility Testing of Filamentous Fungi; […];

[5] = tested on: C. tropicalis; experiment: Broth dilution antifungal susceptibility testing of yeasts (CLSI M27-A), MIC; type: cell-based, Candida tropicalis; details: C. tropicalis strain ATCC750
Protocol: as §1
The sensitivity of relevant fungal strains to the peptides was determined using Clinical Laboratory Standard Institute (CLSI; formerly NCCLS) Approved Standards. Fungal susceptibility was tested using “Reference Method for Broth Dilution Antifungal Susceptibility Testing of Filamentous Fungi; Approved Standard M38-P”, and yeast susceptibility was tested using “Reference Method for Broth Dilution Antifungal Susceptibility Testing of Yeasts; Approved Standard—Second Edition M27-A”.

[6] = tested on: Malasezzia furfur; type: cell-based; details: Malasezzia furfur strain DSM6170
Protocol: as §1, §2

[7] = C. parapsilosis strain ATCC22019
[8] = C. parapsilosis strain ATCC90018

| Compound | MIC, Candida albicans NCTC3179 [1] | MIC [2] | MIC [1] | further results |
| --- | --- | --- | --- | --- |
| RRVRVR [NP304, RRVRVR] | >2000 µM | >2 µM | – | – |
| N=C(N)NCCC[C@H](NC(=O)[C@H](CCCNC(=N)N)NC(=O)[C@H](CCCNC(=N)N)NC(=O)[C@H](CCCNC(=N)N)NC(=O)[C@H](CCCNC(=N)N)NC(=O)[C@H](CCCNC(=N)N)NC(=O)[C@@H](N)CCCNC(=N)N)C(=O)O [NP358, RRRRRRR] | – | – | >2048 µM | – |
| KKKKKKKKKKK [NP346] | – | – | >2048 µM | – |
| RRVRR [NP303, RRVRR] | >2000 µM | >2 µM | – | – |
| RRWRRWRR-OH [NP311] | >2000 µM | – | – | – |
| N=C(N)NCCC[C@H](NC(=O)[C@H](CCCNC(=N)N)NC(=O)[C@H](CCCNC(=N)N)NC(=O)[C@H](CCCNC(=N)N)NC(=O)[C@H](CCCNC(=N)N)NC(=O)[C@H](CCCNC(=N)N)NC(=O)[C@H](CCCNC(=N)N)NC(=O)[C@H](CCCNC(=N)N)NC(=O)[C@H](CCCNC(=N)N)NC(=O)[C@H](CCCNC(=N)N)NC(=O)[C@H](CCCNC(=N)N)NC(=O)[C@H](CCCNC(=N)N)NC(=O)[C@@H](N)CCCNC(=N)N)C(=O)O [NP337] | 2 µM (≈ 4.1 µg/mL) | – | – | MIC, Candida albicans ATCC24433 [1]: 2 µM (≈ 4.1 µg/mL); MIC, Candida albicans ATCC90028 [1]: 4 µM (≈ 8.19 µg/mL); MIC ([3]; C. krusei strain ATCC6258): 2 µM (≈ 4.1 µg/mL); MIC ([3]; C. krusei strain NCPF3953): 16 µM (≈ 32.8 µg/mL); MIC, Candida krusei NCPF3953 ([3]; Candida spp. Type Strains MIC Data table, strain NCPF3953): 16 µM (≈ 32.8 µg/mL); MIC [4, 7]: 32 µM (≈ 65.6 µg/mL); MIC [4, 8]: 128 µM (≈ 262 µg/mL); MIC [5]: 2 µM (≈ 4.1 µg/mL); MIC [6]: 31.25 µM (≈ 64 µg/mL) |
| KKKKKKK [NP344, KKKKKKK] | – | – | >2048 µM | – |
| N=C(N)NCCC[C@H](NC(=O)[C@H](CCCNC(=N)N)NC(=O)[C@@H](N)CCCNC(=N)N)C(=O)O [NP356, RRR] (H-Arg-Arg-Arg-OH; N-terminus and C-terminus assumed) | – | – | >2048 µM | – |
| RRWRRWRR [NP328] | 1024 µM | – | – | MIC, Candida albicans ATCC24433 [1]: 1024 µM; MIC, Candida albicans ATCC90028 [1]: 1024 µM; MIC [3]: 128 µM; MIC, Candida krusei NCPF3953 [3]: 128 µM |
| CC(=O)N[C@H](CCCNC(=N)N)C(=O)N[C@H](CCCNC(=N)N)C(=O)N[C@H](CCCNC(=N)N)C(=O)N[C@H](CCCNC(=N)N)C(=O)N[C@H](CCCNC(=N)N)C(=O)N[C@H](CCCNC(=N)N)C(=O)N[C@H](CCCNC(=N)N)C(=O)N[C@H](CCCNC(=N)N)C(=O)N[C@H](CCCNC(=N)N)C(=O)N[C@H](CCCNC(=N)N)C(=O)N[C@H](CCCNC(=N)N)C(=O)N[C@H](CCCNC(=N)N)C(=O)N[C@H](CCCNC(=N)N)C(N)=O [NP340, Ac-dRdRdRdRdRdRdRdRdRdRdRdRdR-NH2] | – | – | – | MIC, Candida albicans ATCC90028 [1]: 2 µM (≈ 4.18 µg/mL); MIC ([3]; C. krusei strain ATCC6258): 4 µM (≈ 8.36 µg/mL); MIC [4, 7]: 2 µM (≈ 4.18 µg/mL); MIC [4, 8]: 2 µM (≈ 4.18 µg/mL); MIC [5]: 2 µM (≈ 4.18 µg/mL) |
| RRRVRRR [NP306, RRRVRRR] | >2000 µM | >2 µM | – | – |
| RRRWWRRR [NP327] | 512 µM | – | – | MIC, Candida albicans ATCC24433 [1]: 1024 µM; MIC, Candida albicans ATCC90028 [1]: 512 µM; MIC, Candida krusei NCPF3953 [3]: 64 µM |
| RRWWRR [NP324, RRWWRR] | 1024 µM | – | 1024 µM | MIC, Candida albicans ATCC24433 [1]: 1024 µM; MIC, Candida albicans ATCC90028 [1]: 1024 µM; MIC [3]: 256 µM; MIC, Candida krusei NCPF3953 [3]: 256 µM |
| RRWRWR [NP323, RRWRWR] | 1024 µM | – | – | MIC, Candida albicans ATCC24433 [1]: 1024 µM; MIC, Candida albicans ATCC90028 [1]: 2000 µM; MIC [3]: 256 µM; MIC, Candida krusei NCPF3953 [3]: 256 µM |
| RRVRRVRR [NP309] | >2000 µM | >2 µM | – | – |
| RRRRWWRRRR [NP329] | 256 µM | – | 1024 µM | MIC, Candida albicans ATCC24433 [1]: 512 µM; MIC [3]: 32 µM; MIC, Candida krusei NCPF3953 [3]: 32 µM |
| KLTKPKPQAESKKKKK [NP332] | >2000 µM | – | – | – |
| RRRRR [NP357, RRRRR] | – | – | >2048 µM | – |
| KKKDKVKK [NP334] | >2000 µM | – | – | – |
| RRRVVRRR [NP308] | >2000 µM | >2 µM | – | – |
| RVRVR [NP301, RVRVR] | >2000 µM | >2 µM | – | – |
| CC(C)[C@H](NC(=O)[C@H](CCCNC(=N)N)NC(=O)[C@H](CCCNC(=N)N)NC(=O)[C@H](CCCNC(=N)N)NC(=O)[C@@H](N)CCCNC(=N)N)C(=O)N[C@H](C(=O)N[C@@H](CCCNC(=N)N)C(=O)N[C@@H](CCCNC(=N)N)C(=O)N[C@@H](CCCNC(=N)N)C(=O)N[C@@H](CCCNC(=N)N)C(=O)O)C(C)C [NP310] | >2000 µM | >2 µM | – | – |
| RRVVR [NP302, RRVVR] | >2000 µM | >2 µM | – | – |
